pEC50: −log10 of the molar value.
Each compound was assayed against T1, α4β7 integrin (Homo sapiens, UniProt P13612+P26010) (assay: α4β7 integrin cell capture assay). Conditions: Table 1; capture of RPM18866 cells on MadCAM-1 extracellular domain-coated plate.
T1 construct: monitoring the capture of α4β7 integrin expressing cells; endogenous in cells; host or cells: RPMI8866 cells
T1 sequence (P13612 34-1032): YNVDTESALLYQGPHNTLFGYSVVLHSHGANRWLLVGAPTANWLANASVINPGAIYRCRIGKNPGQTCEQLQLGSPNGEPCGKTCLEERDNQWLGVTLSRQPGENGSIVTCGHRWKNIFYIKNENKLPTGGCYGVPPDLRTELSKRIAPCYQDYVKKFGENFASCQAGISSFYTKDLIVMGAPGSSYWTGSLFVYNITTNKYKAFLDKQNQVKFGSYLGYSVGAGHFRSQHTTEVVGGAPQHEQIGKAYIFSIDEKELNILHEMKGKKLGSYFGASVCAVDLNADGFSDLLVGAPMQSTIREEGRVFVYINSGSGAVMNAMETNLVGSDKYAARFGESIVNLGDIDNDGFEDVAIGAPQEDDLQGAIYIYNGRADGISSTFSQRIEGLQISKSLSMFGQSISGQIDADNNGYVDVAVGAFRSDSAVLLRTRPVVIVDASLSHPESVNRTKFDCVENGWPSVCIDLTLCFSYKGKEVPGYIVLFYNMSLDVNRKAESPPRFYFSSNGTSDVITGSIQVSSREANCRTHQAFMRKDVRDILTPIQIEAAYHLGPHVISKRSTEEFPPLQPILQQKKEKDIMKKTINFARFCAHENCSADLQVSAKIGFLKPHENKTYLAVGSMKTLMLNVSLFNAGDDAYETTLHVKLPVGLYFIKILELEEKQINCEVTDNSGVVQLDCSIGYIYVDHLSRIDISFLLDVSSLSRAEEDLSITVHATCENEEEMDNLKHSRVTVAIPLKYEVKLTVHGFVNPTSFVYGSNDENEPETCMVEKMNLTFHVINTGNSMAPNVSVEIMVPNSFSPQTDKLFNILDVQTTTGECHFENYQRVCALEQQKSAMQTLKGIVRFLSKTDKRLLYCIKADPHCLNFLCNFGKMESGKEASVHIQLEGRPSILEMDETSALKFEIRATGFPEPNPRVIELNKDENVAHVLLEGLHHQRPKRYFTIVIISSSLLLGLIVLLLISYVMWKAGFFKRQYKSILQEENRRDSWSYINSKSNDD
T1 sequence (P26010 20-798): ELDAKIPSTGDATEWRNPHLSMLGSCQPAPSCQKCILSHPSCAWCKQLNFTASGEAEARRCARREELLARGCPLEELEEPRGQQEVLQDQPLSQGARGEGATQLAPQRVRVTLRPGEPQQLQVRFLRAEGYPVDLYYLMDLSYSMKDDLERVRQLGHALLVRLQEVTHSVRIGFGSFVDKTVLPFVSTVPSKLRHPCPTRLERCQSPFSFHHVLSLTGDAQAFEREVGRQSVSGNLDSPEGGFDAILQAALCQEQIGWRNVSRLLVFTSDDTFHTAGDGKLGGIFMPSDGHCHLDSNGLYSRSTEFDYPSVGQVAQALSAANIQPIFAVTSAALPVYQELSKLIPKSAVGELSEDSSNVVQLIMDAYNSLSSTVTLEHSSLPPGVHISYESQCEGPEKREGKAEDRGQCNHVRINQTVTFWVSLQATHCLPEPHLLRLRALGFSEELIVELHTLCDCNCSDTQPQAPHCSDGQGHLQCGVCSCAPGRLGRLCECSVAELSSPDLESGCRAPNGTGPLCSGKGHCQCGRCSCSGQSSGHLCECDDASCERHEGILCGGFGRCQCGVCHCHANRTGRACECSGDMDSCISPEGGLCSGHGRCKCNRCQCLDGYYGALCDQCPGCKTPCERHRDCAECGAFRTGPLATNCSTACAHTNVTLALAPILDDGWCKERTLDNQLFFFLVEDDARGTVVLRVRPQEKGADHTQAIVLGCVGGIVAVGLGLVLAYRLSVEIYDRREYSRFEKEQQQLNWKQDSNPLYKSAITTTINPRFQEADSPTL
Type: cell-based
Method: The potency of inhibitors in preventing α4β7 integrin interaction with MadCAM-1 was measured by monitoring the capture of α4β7 integrin expressing cells on a recombinant MadCAM-1 extracellular domain-coated plate. […] The plates were then washed with PBS and blocked with 3% BSA for 2 hours before being washed again.
RPM18866 cells were spun down and re-suspended in assay medium (DMEM+0.5% FBS+0.5 mM MnCl2) at a density of 0.5×10^6 cells/mL. […] The plates were incubated at 37° C. for 1 hour. 50 μL of cells were transferred to the blocked, MadCAM-1-coated plates and incubated for 30 minutes at 37° C. […] The plates were incubated for 90 minutes at room temperature. The plates were then washed 3 times with 70 μL of PBS per well and imaged on a Cellomics ArrayScan instrument. The cells that were bound to the plate were counted and plotted against the compound concentration to determine the EC50 of the test compounds.

Question: With “2,6-difluoro-4-(3-(trifluoromethyl)morpholino)benzoic acid [Example 81]” as the compound, how does the pEC50 read?
Answer: The pEC50 was 8.22.

Question: `COc1cc(F)cc(C(F)(F)F)c1-c1ccc(C[C@H](NC(=O)c2c(F)cccc2F)C(=O)O)c2cccnc12` (single isomer, unassigned) [Example 7] was tested. Which pEC50 did it give?
Answer: Its pEC50 is 8.72.

Question: `COc1cc(F)cc(C(F)(F)F)c1-c1ccc(C[C@H](NC(=O)c2c(F)cccc2F)C(=O)O)c2cccnc12` (single isomer, unassigned) [Example 8] was tested. Which pEC50 did it give?
Answer: Its pEC50 is 7.38.

Question: `N#Cc1ccc(-c2ccc(C[C@H](NC(=O)c3c(F)cc(N4CCOC[C@@H]4C(F)(F)F)cc3F)C(=O)O)c3cccnc23)c(Cl)c1` (single isomer, unassigned) [Example 82] was tested. Which pEC50 did it give?
Answer: Its pEC50 is 8.33.

Question: How did the pEC50 turn out when `N#Cc1ccc(-c2ccc(C[C@H](NC(=O)c3c(F)cc(N4CCOC[C@H]4C(F)(F)F)cc3F)C(=O)O)c3cccnc23)c(Cl)c1` (single isomer, unassigned) [Example 83] was run?
Answer: The pEC50 was 7.48.

Question: How did the pEC50 turn out when `O=C(N[C@@H](Cc1ccc(-c2cccc3c2OCCO3)c2ncccc12)C(=O)O)c1c(F)cc(NS(=O)(=O)c2ccc(-c3ccnc(F)c3)cc2)cc1F` [Example 51] was run?
Answer: The pEC50 was 8.54.

Question: `O=C(N[C@@H](Cc1ccc(-c2ncc3ccccc3c2Cl)c2ncccc12)C(=O)O)c1c(F)cccc1F` [Example 66, (S)-3-(8-(4-chloroisoquinolin-3-yl)quinolin-5-yl)-2-(2,6-difluorobenzamido)propanoic acid] was tested. Which pEC50 did it give?
Answer: The pEC50 was 7.72.

Question: `N#Cc1ccc(-c2ccc(C[C@H](NC(=O)c3c(F)cc(NC(C4CC4)C(F)(F)F)cc3F)C(=O)O)c3cccnc23)c(Cl)c1` (some centres unmarked) [Example 89] was tested. Which pEC50 did it give?
Answer: Its pEC50 is 7.84.

Question: How did the pEC50 turn out when `CC[C@@H](Nc1cc(F)c(C(=O)N[C@@H](Cc2ccc(-c3cn(C)c(=O)n(C)c3=O)c3ncccc23)C(=O)O)c(F)c1)C(F)(F)F` [Example 113, (S)-2-(2,6-difluoro-4-(((R)-1,1,1-trifluorobutan-2-yl)amino)benzamido)-3-(8-(1,3-dimethyl-2,4-dioxo-1,2,3,4-tetrahydropyrimidin-5-yl)quinolin-5-yl)propanoic acid] was run?
Answer: The pEC50 was 8.92.

Question: How did the pEC50 turn out when `CC[C@@H](Nc1cc(F)c(C(=O)N[C@@H](Cc2ccc(-c3c(C(F)(F)F)c4cc(F)ccc4n(C)c3=O)c3ncccc23)C(=O)O)c(F)c1)C(F)(F)F` [Example 124] was run?
Answer: Its pEC50 is 9.22.

Question: How did the pEC50 turn out when “(S)-3-(8-(2-chloro-4-cyanophenyl)quinolin-5-yl)-2-(2,6-difluoro-4-((R)-3-(trifluoromethyl)morpholino)benzamido)propanoic acid [Example 148]” was run?
Answer: Its pEC50 is 7.22.

Same assay, conditions: Table 2; capture of RPM18866 cells on MadCAM-1 extracellular domain-coated plate

Question: `Cc1c(-c2ccc(C[C@H](NC(=O)c3c(F)cc(N[C@H](C)C(F)(F)F)cc3F)C(=O)O)c3cccnc23)c(=O)n(C)c2ccc(F)cc12` (atropisomer, axis not shown) [Example 187] was tested. Which pEC50 did it give?
Answer: Its pEC50 is 8.96.

Question: How did the pEC50 turn out when `CC[C@@H](Nc1cc(F)c(C(=O)N[C@@H](Cc2ccc(-c3c(N4CCC4)cc(C)n(C)c3=O)c3ncccc23)C(=O)O)c(F)c1)C(F)(F)F` [Example 184] was run?
Answer: Its pEC50 is 9.05.

Same assay, conditions: capture of α4β7 integrin expressing RPM18866 cells on MadCAM-1 extracellular domain-coated plate

Question: With `Cc1cc(N2CCOC[C@@H]2C(F)(F)F)cc(F)c1C(=O)N[C@@H](Cc1ccc(-n2c(=O)c3cccnc3n(C)c2=O)c2ncccc12)C(=O)O` [Example 402] as the compound, how does the pEC50 read?
Answer: Its pEC50 is 10.00.
